Data taken from US11390437B2, “Pharmaceutical formulation” (priority 2002, dated 2022).
Entries after “also recorded” stand apart in the source; their conditions may differ.

Experiments:
[1] = Absorption (AUC) by route of administration, Example 3; settings: after oropharyngeal (buccal) versus sublingual administration
[2] = Cannabinoid uptake in patients, drops applied sublingually; assay type: in vivo, human; settings: sublingual drops, dose approx 20 mg of each cannabinoid; for Cmax / AUC(0-t): human, plasma; for AUC(0-t): read-out: AUC 0-12
Description: Initially the applicant looked at cannabinoid uptake in patients by applying drops sublingually (BDS dissolved in a mixture of a glycerol/propylene glycol and ethanol) THC 5 mg/ml, CBD 5 mg/ml and THC/CBD 5 mg/ml plus 5 mg/ml.
The results are noted in Table 3 below:
The proportion of 11 hydroxy tetrahydro cannabinol to THC (AUC 0-12) was about 1.9 indicating a significant amount of oral ingestion may have occurred.
(§1) The data obtained is illustrated in FIGS. 1a, 1b and 2, which show the mean plasma concentrations for the formulations identified with reference to Tables 3 and 4.

[3] = Cannabinoid uptake, pump action sublingual spray; assay type: in vivo, human; settings: dose approx 21 mg THC and 35 mg CBD; for Cmax / AUC(0-t): human, plasma; for AUC(0-t): read-out: AUC 0-12
Description: On moving to a pump action sublingual spray (following problems solubilising cannabinoids with hydrofluorocarbon propellant systems) the applicant obtained the results noted in Table 4. The solvent system comprised 50:50 ethanol to propylene glycol (v/v ratio) with THC 25 mg/ml; CBD 50 mg/ml and THC/CBD 25 mg/ml plus 50 mg/ml respectively.
The proportion of 11 hydroxy tetrahydro cannabinol to THC (AUC 0-12) was about 1.6. The profile for each cannabinoid was similar irrespective of the formulation (THC, CBD, THC plus CBD).
as §1
That effective delivery of the cannabinoids can be achieved in a vehicle consisting of ethanol and propylene glycol is illustrated by the plasma levels shown in FIGS. 1a, 1b and 2. These show, respectively, formulations containing the high THC and high CBD formulations in FIGS. 1a and 1b. Similarly, the effectiveness of a defined ratio formulation THC:CBD 1:1 is illustrated in FIG. 2.

[4] = Effect of light on stability of methanolic CBME solutions, HPLC; assay type: physicochemical; settings: for residual compound: amber glass protected, 112 days
From the text: Experiments were set up to follow the effects of white light on the stability of methanolic solutions of THC, CBD or THCV. Following preliminary knowledge that light of different wavelengths may have differing effects on compound stability (viz. tretinoin is stable only in red light or darkness), samples were wrapped in coloured acetate films or in light exclusive foil. A concurrent experiment used charcoal treated CBME to study the effects of the removal of plant pigments on the degradation process.
Cannabinoids: 1 mg/ml solutions of CBME were made up in AR methanol. Methanolic solutions of CBME (100 mg/ml) were passed through charcoal columns (Biotage Flash 12AC 7.5 cm cartridges, b/no. 273012S) and were then diluted to 1 mg/ml. Solutions were stored in soda-glass vials, which were tightly screw capped and oversealed with stretch film. Tubes were wrapped in coloured acetate films as follows:
Solutions were also filled into the amber glass U-save vials; these were sealed with a septum and oversealed. One tube of each series of samples was tightly wrapped in aluminium foil in order to completely exclude light. This served as a “dark” control to monitor the contribution of ambient temperature to the degradation behaviour. All of the above tubes were placed in a box fitted with 2×40 watt white Osram fluorescent tubes. The walls of the box were lined with reflective foil and the internal temperature was monitored at frequent intervals.
A further tube of each series was stored at −20° C. to act as a pseudo to the reference sample; in addition, one tube was exposed directly to light without protection. Samples were withdrawn for chromatographic analysis at intervals up to 112 days following the start of the study. The study was designated AS01201/AX282.
(§2) Samples of the test solutions were withdrawn and diluted as appropriate for HPLC and TLC analysis. HPLC was carried out in accordance with TM GE.004.V1 (SOPam058). TLC was performed on layers on Silica gel (MN SilG/UV) in accordance with TM GE.002.V1 (SOPam056).
The results from the HPLC analysis of samples drawn from the stored, light exposed solutions, are plotted and presented as FIGS. 6 and 6a (THC before and after charcoal treatment), and FIGS. 7 and 7a (CBD before and after charcoal treatment).

[5] = Effect of light on stability, TLC qualitative analysis; assay type: physicochemical
Description: as §2
The evaluation of the light degraded solutions using thin layer chromatography, used both the existing normal phase system (i.e. Silica stationary phase and hexane/diethyl ether as mobile phase) and two additional systems, capable of resolving more polar or polymeric products formed during the degradation processes.
At the same time, there was an increase in the intensity of Fast Blue B staining material running at, or close to, the origin.

[6] = CNS effect; Carlini et al, 1973; cited from earlier work
[7] = postural hypotension in naïve patients, hypertension reported on prolonged usage; cited from earlier work
[8] = THC alone versus same quantity of THC as Cannabis extract; cited from earlier work
[9] = Relative thermo-oxidative stability; settings: THC versus CBD
[10] = Reports of subjects taking THCV; settings: compared with THC

CCCCCc1cc(O)c2c(c1)OC(C)(C)[C@@H]1CCC(CO)=C[C@@H]21 [11-OH THC, 11 hydroxy tetrahydro cannabinol]
reduction in the amount of 11-hydroxy metabolite detected [1]: approximately 25%

C=C(C)[C@@H]1CCC(C)=C[C@H]1c1c(O)cc(CCCCC)cc1O [CBD, cannabidiol]
Cmax [2]: 2 ng/mL | AUC(0-t) [2]: ~8 ng·h/mL | Plasma levels after 6 hours [2]: ~0.5 ng/mL | Plasma levels after 6 hours [3]: Plasma levels after 6 hours were about 1 ng/ml THC and 1 ng/ml CBD | Cmax [3]: 8 ng/mL | AUC(0-t) [3]: ~22 ng·h/mL | residual compound ([4]; after charcoal treatment): approximately 64% | residual compound ([4]; without charcoal clean up): ~38% | relative stability under photochemical stress ([4]; light exposed methanolic CBME solutions): significantly more sensitive to the effects of light than is THC; also recorded: markedly less stable than THC | time to degradation to non-detectable levels ([4]; no charcoal treatment, all light exposures except amber glass, foil and −20° storage, 1 mg/ml CBME in methanol): < 40 days

CCCCCc1cc(O)c2c(c1)OC(C)(C)[C@@H]1CCC(C)=C[C@@H]21 [THC, Δ^9-tetrahydrocannabinol]
Cmax [2]: 6 ng/mL | AUC(0-t) [2]: ~16 ng·h/mL | Plasma levels after 6 hours [2]: ~1 ng/mL | Plasma levels after 6 hours [3]: Plasma levels after 6 hours were about 1 ng/ml THC and 1 ng/ml CBD | Cmax [3]: 6 ng/mL | AUC(0-t) [3]: ~16 ng·h/mL | stability of charcoal treated versus untreated extract ([4]; all solutions except those stored in the dark and at −20° C.): significant improvements to the stability | TLC spot intensity ([5]; day 112, all colour filtered lights, hexane/diethyl ether system): reduction in the intensity | TLC spot intensity ([5]; day 112, foil protected solution): none of these effects | Anticonvulsant [6]: † THC is pro convulsant | effect on blood pressure [7]: § THC has a biphasic effect on blood pressure; in naïve patients it may produce postural hypotension and it has also been reported to produce hypertension on prolonged usage. | degree of pain relief [8]: lower degree of pain relief than the same quantity of THC given as an extract of Cannabis | relative thermo-oxidative stability [9]: less stable

CCCc1cc(O)c2c(c1)OC(C)(C)[C@@H]1CCC(C)=C[C@@H]21 [THCV, Δ^9-tetrahydrocannabinol propyl analogue]
hangover [10]: less severe hangover | mood enhancement as reported by subjects [10]: less disturbing than that produced by THC
